Experimental data taken from US9402911B2, “Multifunctional small molecules” (The Regents of the University of Michigan, priority 2011, dated 2016).

Biological target: Folate binding protein (FBP, bovine milk) (Bos taurus, UniProt P02702)
Test: SPR binding to immobilized folate binding protein
Details: read-out: equilibrium dissociation constant KD, FBP chip, free MTX
Method: SPR analysis was performed in a Biacore® X instrument (Pharmacia Biosensor AB, Uppsala, Sweden).
Folate binding protein (FBP)-presenting chip was prepared at the surface protein density of 11 ng/mm^2 (≈2-3 FBP per 10 nm^2) following an EDC-based amide coupling method as described previously (see, e.g., Hong, S.; et al., Chem. Biol. 2007, 14, 107-15; Plantinga, A.; et al., ACS Med. Chem. Lett. 2011, 2, 363-67; each herein incorporated by reference in their entireties).
In an approach to determine the equilibrium dissociation constants (KD) for G5-MTXn on a quantitative basis, the SPR data was analyzed by using the non-linear regression method as established for SPR analysis (see, e.g., Ober, R. J.; et al., Anal. Biochem. 2003, 312, 57-65; herein incorporated by reference in its entirety). This analytical method enabled the SPR data to be fit according to a linear combination of exponential functions, and to extract the estimates for their kinetic rate constants (kon, koff) and KD (FIG. 7).

Folate binding protein (FBP, bovine milk), sequence (P02702 20-234): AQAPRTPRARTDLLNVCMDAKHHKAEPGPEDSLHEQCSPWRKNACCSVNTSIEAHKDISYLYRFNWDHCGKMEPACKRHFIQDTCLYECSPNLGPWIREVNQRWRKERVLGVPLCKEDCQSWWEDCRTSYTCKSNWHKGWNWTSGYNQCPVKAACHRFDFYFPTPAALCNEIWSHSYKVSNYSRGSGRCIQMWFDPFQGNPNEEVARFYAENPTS

Kd: 24 µM
Compound: CN(Cc1cnc2nc(N)nc(N)c2n1)c1ccc(C(=O)N[C@@H](CCC(=O)O)C(=O)O)cc1 [MTX, methotrexate]
